The values that follow come from patent US20260176290A1, “INHIBITORS OF KRAS(G12D)” (Ranok Therapeutics (Hangzhou) Co. Ltd., priority 2022, published 2026).

SMILES strings stand for the structures.

The subject of experiment [1] is AGS gastric carcinoma cells [heterozygous G12D]. Briefly: Cancer cell line proliferation (CellTiter-Glo), AGS. Format: cell-based. Conditions: Homo sapiens, 72 hr, read-out: CTG(IC50), ABS-72 H(nM) AGS. Here is the method: (§1) The following cancer cell lines were employed: AGS gastric carcinoma [heterozygous G12D] (ATCC, CRL-1739); A-427 lung carcinoma [heterozygous G12D] (ATCC, HTB-53); ASPC1 pancreatic adenocarcinoma [homozygous G12D] (ATCC, CRL-1682) and SW1990 pancreatic adenocarcinoma [homozygous G12D] (ATCC CRL-2172). Cell lines were cultured essentially according to ATCC recommendations.
(§2) AGS, A-427, ASPC1, SW1990, and GP2D cells were plated in 96-well tissue culture plates at 4,000 cells/well and incubated at 37° C./5% CO2 for 72 hr in 100 μl of media. 3-fold serial dilutions of each test compound were prepared ranging from 20 μM to 1.02 nM. Each cell line was then treated with test compounds at various concentrations with a final concentration of 0.5% DMSO/well, and then incubated at 37° C./5% CO2 for 72 hr. 100 μl of CellTiter-Glo® Reagent (Promega Corporation, Madison, WI) was added to each well and processed according manufacturer's protocol. Results were analyzed and IC50 5 values were calculated in GraphPad 7 software.
On the technique in general: ATP-based viability assays read luminescence as a measure of living cells.

In experiment [2] the test system is A-427 lung carcinoma cells [heterozygous G12D]. Kind of experiment: Cancer cell line proliferation (CellTiter-Glo), A-427. Format: cell-based. As to conditions: Homo sapiens, A427 cells, 72 hr, read-out: CTG(IC50), ABS-72 H(nM) A427. How it is done:
as §1, §2

In experiment [3] the test system is ASPC1 pancreatic adenocarcinoma cells [homozygous G12D]. Briefly: Cancer cell line proliferation (CellTiter-Glo), ASPC1. The format is cell-based. Conditions: Homo sapiens, ASPC-1 cells, 72 hr, read-out: CTG(IC50), ABS-72 H(nM) ASPC-1. How it is done:
as §1, §2

A further experiment deals with T1, KRAS (G12D)/SOS1 (Homo sapiens, UniProt P01116, G12D).
T1 construct: purchased Cisbio 63ADK000CB17PEH
T1 sequence (P01116 1-188 isoform P01116-2 G12D): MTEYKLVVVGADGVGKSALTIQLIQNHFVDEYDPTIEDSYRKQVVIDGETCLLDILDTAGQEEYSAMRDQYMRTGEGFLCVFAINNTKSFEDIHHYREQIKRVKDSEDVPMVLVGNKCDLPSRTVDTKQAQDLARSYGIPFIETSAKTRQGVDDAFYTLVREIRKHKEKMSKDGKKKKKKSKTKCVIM
Briefly: KRAS (G12D)/SOS1 homogeneous time-resolved fluorescence (HTRF) assay. The format is binding. Conditions: absence of GTP, 4° C. for 3 hr. Here is the method: 3-fold serial dilutions of each test compound were prepared ranging from 20 μM to 1.02 nM. The test compound was mixed and incubated with reaction components, incubated in a sealed plate at 4° C. for 3 hr and fluorescence was measured using a PerkinElmer Envision plate reader. […]
In general terms: Time-resolved FRET reads energy transfer from a long-lived donor to a nearby acceptor.

In experiment [4] the test system is SW1990 pancreatic adenocarcinoma cells [homozygous G12D]. Briefly: Cancer cell line proliferation (CellTiter-Glo), SW1990. Format: cell-based. Conditions: Homo sapiens, 72 hr, read-out: CTG(IC50), ABS-72 H(nM) SW1990. How it is done:
as §1, §2

As a reminder, the IC50 is the concentration that inhibits the measured activity by half.

In the case of `C#Cc1c(F)ccc2cc(O)cc(-c3ncc4c(N5CC6CCC(C5)N6)nc(OCC5(CN6CCC(C#N)CC6)CC5)nc4c3F)c12` [Example 11], the IC50 (in experiment [1]; in experiment [2]; in experiment [3]; against KRAS (G12D)/SOS1) was below 100 nM throughout.
As for `C#Cc1c(F)ccc2cc(O)cc(-c3ncc4c(N5CC6CCC(C5)N6)nc(OCC5(CN6CC=C(C(F)(F)F)CC6)CC5)nc4c3F)c12` [Example 26], the IC50 is below 100 nM in experiment [4]; below 100 nM in experiment [1]; 100 to 1000 nM in experiment [2]; below 100 nM in experiment [3]; below 100 nM against KRAS (G12D)/SOS1.
On to `C#Cc1c(F)ccc2cc(O)cc(-c3nc(N(C)C)c4c(N5CC6CCC(C5)N6)nc(OCC5(CN6CCC(F)CC6)CC5)nc4c3F)c12` [Example 23], for which the IC50 in experiment [4] was above 1000 nM; in experiment [1], above 1000 nM; in experiment [2], above 1000 nM; in experiment [3], above 1000 nM; against KRAS (G12D)/SOS1, 100 to 1000 nM.
In the case of `C#Cc1c(F)ccc2cc(O)cc(-c3nc(OC(F)(F)F)c4c(N5CC6CCC(C5)N6)nc(OCC5(CN6CCC(F)CC6)CC5)nc4c3F)c12` [Example 47], the IC50 (in experiment [4]; in experiment [1]; in experiment [3]; against KRAS (G12D)/SOS1) was below 100 nM each time.
Take `C#Cc1cccc2cc(O)cc(-c3ncc4c(N5CC6CCC(C5)N6)nc(OCC5(CN6CC(F)C6)CC5)nc4c3F)c12` [Example 6]: the IC50 in experiment [1] was below 100 nM; in experiment [2], below 100 nM; in experiment [3], 100 to 1000 nM; on KRAS (G12D)/SOS1, below 100 nM.
Turning to `C#Cc1c(F)ccc2cc(O)cc(-c3nc(Cl)c4c(N5CC6CCC(C5)N6)nc(OCC5(CN6CCC(C(F)(F)F)CC6)CC5)nc4c3F)c12` [Example 36], the IC50 in experiment [4] is below 100 nM; in experiment [1], below 100 nM; in experiment [2] it was 100 to 1000 nM; in experiment [3], below 100 nM; against KRAS (G12D)/SOS1, below 100 nM.
As for `C#Cc1cccc2cc(O)cc(-c3ncc4c(N5CC6CCC(C5)N6)nc(OCC5(CN6CC[C@H](F)C6)CC5)nc4c3F)c12` [Example 8], the IC50 (in experiment [4]; in experiment [1]; in experiment [2]; in experiment [3]; against KRAS (G12D)/SOS1) was below 100 nM throughout.
As for `C#Cc1cccc2cc(O)cc(-c3ncc4c(N5CC6CCC(C5)N6)nc(OCC5(CN6CCC(F)CC6)CC5)nc4c3F)c12` [Example 7], the IC50 (in experiment [4]; in experiment [1]; in experiment [2]; in experiment [3]; at KRAS (G12D)/SOS1) was below 100 nM each time.
Regarding `C#Cc1c(F)ccc2cc(O)cc(-c3nc(OC(F)F)c4c(N5CC6CCC(C5)N6)nc(OCC5(CN6CCC(F)CC6)CC5)nc4c3F)c12` [Example 35], the IC50 (in experiment [4]; in experiment [1]; in experiment [3]; against KRAS (G12D)/SOS1) was below 100 nM throughout.
Turning to `C#Cc1c(F)ccc2cc(O)cc(-c3ncc4c(N5CC6CCC(C5)N6)nc(OCC5(CN6CCC(OC(F)(F)F)CC6)CC5)nc4c3F)c12` [Example 20], the IC50 in experiment [4] is below 100 nM; in experiment [1], below 100 nM; in experiment [2], 100 to 1000 nM; in experiment [3] it was below 100 nM; against KRAS (G12D)/SOS1, below 100 nM.
On to `C#Cc1c(F)ccc2cc(O)cc(-c3nc(OC)c4c(N5CC6CCC(C5)N6)nc(OCC5(CN6CC7(CC(F)C7)C6)CC5)nc4c3F)c12` [Example 50], for which the concentration for half-maximal inhibition (IC50) (in experiment [4]; in experiment [1]; in experiment [3]; against KRAS (G12D)/SOS1) was below 100 nM in each case.
With `C#Cc1c(F)ccc2cc(O)cc(-c3nc(OC)c4c(N5CC6CCC(C5)N6)nc(OCC5(CN6CC7CC7C6)CC5)nc4c3F)c12` (centres unmarked) [Example 2], the IC50 (in experiment [4]; in experiment [1]; in experiment [2]; in experiment [3]; on KRAS (G12D)/SOS1) was below 100 nM each time.
In the case of `C#Cc1c(F)ccc2cc(O)cc(-c3ncc4c(N5CC6CCC(C5)N6)nc(OCC5(CN6CCC(C(C)C)CC6)CC5)nc4c3F)c12` [Example 18], the IC50 is below 100 nM in experiment [1], 100 to 1000 nM in experiment [2] and below 100 nM at KRAS (G12D)/SOS1.
In the case of `C#Cc1c(F)ccc2cc(O)cc(-c3nc(OC)c4c(N5CC6CCC(C5)N6)nc(OCC5(CN6CC(F)C(F)C6)CC5)nc4c3F)c12` (centres unmarked) [Example 42], the IC50 was below 100 nM in experiment [4]; below 100 nM in experiment [1]; 100 to 1000 nM in experiment [2]; below 100 nM in experiment [3]; below 100 nM at KRAS (G12D)/SOS1.
For the molecule `C#Cc1c(F)ccc2cc(O)cc(-c3ncc4c(N5CC6CCC(C5)N6)nc(OCC5(CN6CCC[C@H](C#N)C6)CC5)nc4c3F)c12` [Example 10], the IC50 (in experiment [1]; in experiment [2]; in experiment [3]; against KRAS (G12D)/SOS1) was below 100 nM each time.
Take `C#Cc1c(F)ccc2cc(O)cc(-c3ncc4c(N5CC6CCC(C5)N6)nc(OCC5(CN6CCC([S+](C)[O-])CC6)CC5)nc4c3F)c12` (centres unmarked) [Example 22]: the IC50 in experiment [1] is above 1000 nM; in experiment [2], above 1000 nM; in experiment [3] it was above 1000 nM; at KRAS (G12D)/SOS1 it was 100 to 1000 nM.
Regarding `C#Cc1c(F)ccc2cc(O)cc(-c3ncc4c(N5CC6CCC(C5)N6)nc(OCC5(CN6CCC(OC)CC6)CC5)nc4c3F)c12` [Example 12], the IC50 is below 100 nM in experiment [1], 100 to 1000 nM in experiment [2], 100 to 1000 nM in experiment [3] and below 100 nM against KRAS (G12D)/SOS1.
In the case of `C#Cc1c(F)ccc2cc(O)cc(-c3nc(OC4CC4)c4c(N5CC6CCC(C5)N6)nc(OCC5(CN6CCC(C(F)(F)F)CC6)CC5)nc4c3F)c12` [Example 31], the IC50 in experiment [4] is below 100 nM; in experiment [1] it was below 100 nM; in experiment [2], 100 to 1000 nM; in experiment [3], below 100 nM; on KRAS (G12D)/SOS1 it was below 100 nM.
For `C#Cc1c(F)ccc2cc(O)cc(-c3nc(Cl)c4c(N5CC6CCC(C5)N6)nc(OCC5(CN6CCC(F)CC6)CC5)nc4c3F)c12` [Example 28], the IC50 in experiment [4] was below 100 nM; in experiment [1], below 100 nM; in experiment [2], 100 to 1000 nM; in experiment [3], below 100 nM; at KRAS (G12D)/SOS1, below 100 nM.
As to `C#Cc1c(F)ccc2cc(O)cc(-c3nc(OC)c4c(N5CC6CCC(C5)N6)nc(OCC(=C)CN5CC6CC6C5)nc4c3F)c12` (centres unmarked) [Example 48], the IC50 (in experiment [4]; in experiment [1]; in experiment [3]; against KRAS (G12D)/SOS1) was below 100 nM each time.
`C#Cc1c(F)ccc2cc(O)cc(-c3ncc4c(N5CC6CCC(C5)N6)nc(OCC56CCCN5C[C@H](F)C6)nc4c3F)c12` (some centres unmarked) [Ref. 1, reference compound]: the IC50 was below 100 nM in experiment [4], below 100 nM in experiment [1], below 100 nM in experiment [2] and 100 to 1000 nM in experiment [3].
As to `C#Cc1c(F)ccc2cc(O)cc(-c3nc(N)c4c(N5CC6CCC(C5)N6)nc(OCC5(CN6CCC(F)CC6)CC5)nc4c3F)c12` [Example 46], the IC50 in experiment [4] is below 100 nM; in experiment [1], below 100 nM; in experiment [3], 100 to 1000 nM; against KRAS (G12D)/SOS1 it was below 100 nM.
As to `C#Cc1c(F)ccc2cc(O)cc(-c3ncc4c(N5CC6CCC(C5)N6)nc(OCC5(CN6CC[C@H](F)C6)CC5)nc4c3F)c12` [Example 15], the IC50 (in experiment [1]; in experiment [2]; in experiment [3]; against KRAS (G12D)/SOS1) was below 100 nM each time.
As for `C#Cc1c(F)ccc2cc(O)cc(-c3ncc4c(N5CC6CCC(C5)N6)nc(OCC5(CN6CCCC(F)(F)C6)CC5)nc4c3F)c12` [Example 9], the IC50 in experiment [1] is below 100 nM; in experiment [2] it was 100 to 1000 nM; in experiment [3] it was 100 to 1000 nM; against KRAS (G12D)/SOS1 it was below 100 nM.
In the case of `C#Cc1c(F)ccc2cc(O)cc(-c3ncc4c(N5CC6CCC(C5)N6)nc(OCC5(CN6CCC[C@@H](F)C6)CC5)nc4c3F)c12` [Example 16], the IC50 (in experiment [1]; in experiment [2]; in experiment [3]; on KRAS (G12D)/SOS1) was below 100 nM throughout.
In the case of `C#Cc1cccc2cc(O)cc(-c3ncc4c(N5CC6CCC(C5)N6)nc(OCC5(CN6CCC(OC)CC6)CC5)nc4c3F)c12` [Example 17], the IC50 in experiment [1] was below 100 nM; in experiment [2], 100 to 1000 nM; at KRAS (G12D)/SOS1, below 100 nM.
As to `C#Cc1cccc2cc(O)cc(-c3ncc4c(N5CC6CCC(C5)N6)nc(OCC5(CN6CCC(F)(F)CC6)CC5)nc4c3F)c12` [Example 5], the IC50 (in experiment [1]; in experiment [2]; in experiment [3]; on KRAS (G12D)/SOS1) was below 100 nM in each case.
